Experimental data taken from US11464749B2, “Bismuth-thiol compositions and methods of use” (Microbion Corporation, priority 2018, dated 2022).
In brackets after ≈: the same amount, converted by molar mass. Several values for one entry are separate records, joined by “and”; a condition that tells them apart may be missing. Equal values may be shown once. Read-outs that look alike come from different tables or passages of the source.

Key:
[1] = test system: B. cenocepacia (B cepacia complex); assay: MIC against CF bacterial strains (Example 5); settings: Burkholderia cenocepacia
C. parapsilosis = assay: Broth microdilution MIC, yeast (Example 11); format: cell-based
Candida albicans = assay: Broth microdilution antifungal susceptibility (Example 13); format: cell-based; settings: Candida albicans
Burkholderia spp. = assay: organism not typed; format: cell-based; settings: during FIC testing; B. multivorans isolate 1795 (MEM-I, CIP-R)
B. cepacia = assay: Broth microdilution MIC (Example 10); settings: initial MIC testing
[2] = Face mask inhalation in beagle dogs: clinical chemistry; format: in vivo; settings: sampling times not given
Method: Once adequately conditioned to the restraint device and face-masks, the animals are individually exposed to the test article aerosols. Animals receive a single face-mask inhalation exposure in a ramp study design to test article aerosols for up to 60 min. Animal observations during and post exposure determine the tolerance of inhaled BisEDT aerosols.
Group 1 (vehicle) are exposed to a vehicle atmosphere for 30 minutes. Group 2 (50 μg/kg) are exposed to BisEDT for 30 minutes. Target concentrations and exposure durations for Groups 3-5 are based on the presence of any toxicity via clinical observations or gross necropsy findings. In each of Groups 3-5, if no adverse clinical signs of toxicity are observed, the next groups' exposure will be conducted at a higher target dose. If adverse clinical signs of toxicity are observed, the next groups' exposure will be conducted at a lower target dose. This approach is repeated for all BisEDT doses. The final documented exposure duration is the maximum tolerated dose or the maximum feasible dose.
The aerosol generation system couples a commercially available compressed air jet nebulizer to a chamber that allows the aerosols to transition to the animals. Exposure is by face-mask inhalation per the study design above. […] Formulation concentration and exposure duration are modulated to achieve target doses if necessary.
Blood Collections and Bioanalytical Analysis: Blood are collected for pharmacokinetic (PK) analysis prior to exposure, then at 4 hr (±5 min) post exposure, and again on Day 1, Day 2, Day 7 (pre- and 4 hr (±5 min)-post exposure), Day 8, Day 9, Day 10, Day 11, Day 12, Day 13, and Day 14. A total of 0.25 mL is collected at each timepoint. No PK blood is collected from the vehicle control (Group 1) animals; only animals exposed to BisEDT have blood collected for PK analysis. Collected samples are flash frozen without processing for shipment to Medpace for bioanalytical analysis. Additional blood is collected from all animals in all groups for hematology (1 mL) and clinical chemistry (1 mL) at baseline, Day 7 (pre-exposure), and again at euthanasia. Blood (2-2 mL) is collected from all animals at necropsy for coagulation analysis (d-Dimer, fibrinogen, PT, and PTT).
For clinical chemistry analyses, whole blood (1 mL) is placed into serum separator or clot tube and […] by centrifugation at a minimum of 1300 g at 2 to 8° C. for 10 (±1) min. Plasma samples are stored at −70 to −90° C. until analysis.
Clinical chemistry samples are analyzed on a Hitachi Modular Analytics Clinical Chemistry System (Roche Diagnostics, Indianapolis, Ind.).

[3] = Grp 1 (1001 Male, 1002 Female, Avg), 3 lines per subject
[4] = Grp 2 (2001 Male, 2002 Female, Avg), 3 lines per subject
[5] = Grp 3 (3001 Male, 3002 Female, Avg), 3 lines per subject
[6] = Grp 4 (4001 Male, 4004 Female, Avg; 4002 Female, 4003 Male), 2-3 lines per subject

`CC(S)C(C)S.[Bi]` (stereo not drawn) [BisBDT, bismuth-2,3-butanedithiol] showed an MIC [1] of 4 µg/mL, an MIC (C. parapsilosis; C. parapsilosis MMX 7555, FLU^R, 24 hr) of 0.25 µg/mL and an MIC (C. parapsilosis; C. parapsilosis MMX 7555, FLU^R, 48 hr) of 0.5 µg/mL. For the same molecule, the MIC (C. parapsilosis; Lodderomyces parapsilosis, 24 h) was 0.25 µg/mL, the MIC (C. parapsilosis; Lodderomyces parapsilosis, 48 h) was 0.5 µg/mL and the MIC (C. parapsilosis; Lodderomyces parapsilosis, ATCC22019, 24 h) was 0.5 µg/mL. It also gave an MIC (C. parapsilosis; Lodderomyces parapsilosis, ATCC22019, 48 h) of 1 µg/mL, an MIC (Candida albicans; 24 h, read-out: MIC0 (complete inhibition), isolate MMX 7053 (Susceptible), 24 hr) of 1 µg/mL and an MIC (Candida albicans; 24 h, read-out: MIC0 (complete inhibition), isolate MMX 7067 (FLU-R, VORI-R), 24 hr) of 1 µg/mL. It also gave an MIC (Candida albicans; 24 h, read-out: MIC0 (complete inhibition), isolate MMX 7430 (Susceptible), 24 hr) of 0.5 µg/mL, an MIC (Candida albicans; 24 h, read-out: MIC0 (complete inhibition), isolate MMX 7437 (FLU-I), 24 hr) of 2 µg/mL and an MIC (Candida albicans; 24 h, read-out: MIC0 (complete inhibition), isolate MMX 7445 (FLU-R, VORI-R), 24 hr) of 2 µg/mL. It also gave an MIC (Candida albicans; 24 h, read-out: MIC2 (50% inhibition)) of 1 µg/mL, an MIC (Candida albicans; 24 h, read-out: MIC2 (50% inhibition), isolate ATCC MYA-2732 (FLU-R, VORI-I), 24 hr) of 1 µg/mL and an MIC (Candida albicans; 24 h, read-out: MIC2 (50% inhibition), isolate MMX 7053 (Susceptible), 24 hr) of 0.5 µg/mL. The MIC (Candida albicans; 24 h, read-out: MIC2 (50% inhibition), isolate MMX 7067 (FLU-R, VORI-R), 24 hr) was 0.5 µg/mL, the MIC (Candida albicans; 24 h, read-out: MIC2 (50% inhibition), isolate MMX 7403 (Susceptible), 24 hr) was 0.25 µg/mL and the MIC (Candida albicans; 24 h, read-out: MIC2 (50% inhibition), isolate MMX 7424 (CASP-R, MICA-R), 24 hr) was 1 µg/mL. The MIC (Candida albicans; 24 h, read-out: MIC2 (50% inhibition), isolate MMX 7430 (Susceptible), 24 hr) was 0.25 µg/mL, the MIC (Candida albicans; 24 h, read-out: MIC2 (50% inhibition), isolate MMX 7445 (FLU-R, VORI-R), 24 hr) was 1 µg/mL and the MIC (Candida albicans; 24 h, read-out: MIC0 (complete inhibition)) was 2 µg/mL. The MIC (Candida albicans; ATCC90028, 24 h, read-out: MIC0 (complete inhibition), isolate ATCC 90028 (Susceptible), 24 hr) was 2 µg/mL, the MIC (Candida albicans; ATCC90028, 24 h, read-out: MIC2 (50% inhibition), isolate ATCC 90028 (Susceptible), 24 hr) was 0.5 µg/mL and the MIC (Candida albicans; ATCC204276, 24 h, read-out: MIC0 (complete inhibition), isolate ATCC 204276 (MICA-R), 24 hr) was 1 µg/mL. The MIC (Candida albicans; ATCC204276, read-out: MIC2 (50% inhibition), isolate ATCC 204276 (MICA-R), result after 48 hr incubation (insufficient growth at 24 hr)) was 1 µg/mL.

For `C[C@@H](O)[C@H]1C(=O)N2C(C(=O)O)=C(S[C@@H]3CN[C@H](C(=O)N(C)C)C3)[C@H](C)[C@H]12` [MEM], the MIC (Burkholderia spp.) was 4 µg/mL, the MIC (B. cepacia; B. cepacia isolate 0546) was 4 µg/mL (≈ 10.4 µM) and the MIC (B. cepacia; B. cepacia isolate 0547) was 2 µg/mL (≈ 5.22 µM). The MIC (B. cepacia; B. cepacia isolate 1793) was 4 µg/mL (≈ 10.4 µM), the MIC (B. cepacia; B. cepacia isolate 1794) was 4 µg/mL (≈ 10.4 µM) and the MIC (B. cepacia; B. cepacia isolate 9040) was 4 µg/mL (≈ 10.4 µM).

For `C1C[S][Bi]([S]CC[S][Bi]2[S]CC[S]2)[S]1` [BisEDT, bismuth-1,2-ethanedithiol], the AGR [2, 3] was 2.6 and 1.9 (2×) and 2.1 (2×), the ALB [2, 3] was 3.7 g/dL and the ALPK [2, 3] was 125 IU/L and 120 IU/L and 248 IU/L and 243 IU/L and 235 IU/L and 91 IU/L. The ALT [2, 3] was 26 IU/L and 27 IU/L and 29 IU/L and 21 IU/L, the AST [2, 3] was 33 IU/L (2×) and 29 IU/L (2×) and 27 IU/L and the BUN [2, 3] was 13 mg/dL (2×) and 17 mg/dL. For the same molecule, the CA2 [2, 3] was 10.3 mg/dL, the CHOL [2, 3] was 129 mg/dL and 116 mg/dL and 132 mg/dL and 130 mg/dL and 107 mg/dL and the CREA [2, 3] was 0.5 mg/dL. The GLOB [2, 3] was 1.4 g/dL and 1.5 g/dL and 1.8 g/dL, the GLUC [2, 3] was 88 mg/dL and 89 mg/dL and 90 mg/dL and 78 mg/dL and 92 mg/dL (2×) and the K [2, 3] was 4.5 mmo/L and 4.7 mmo/L (2×) and 4.2 mmo/L and 5.1 mmo/L. The Na [2, 3] was 150 mmo/L, the TP [2, 3] was 5.5 g/dL and 4.9 g/dL and the TRIG [2, 3] was 32 mg/dL and 29 mg/dL and 53 mg/dL and 39 mg/dL and 38 mg/dL and 37 mg/dL. For the same molecule, the AGR [2, 4] was 1.9 and 2.0 and 1.7 and 2.3 (2×), the ALB [2, 4] was 3.4 g/dL and 3.7 g/dL and the ALT [2, 4] was 22 IU/L (3×) and 18 IU/L and 29 IU/L and 27 IU/L. For the same molecule, the AST [2, 4] was 48 IU/L and 36 IU/L (2×) and 35 IU/L and 41 IU/L and 38 IU/L, the BUN [2, 4] was 12 mg/dL and 16 mg/dL and 14 mg/dL (2×) and the CHOL [2, 4] was 114 mg/dL. The Cl [2, 4] was 108 mmo/L and 110 mmo/L and 114 mmo/L, the GLOB [2, 4] was 2.0 g/dL and 1.9 g/dL and 1.6 g/dL (2×) and the GLUC [2, 4] was 91 mg/dL and 97 mg/dL and 95 mg/dL and 89 mg/dL. The K [2, 4] was 4.5 mmo/L and 4.9 mmo/L and 5.0 mmo/L and 5.2 mmo/L and 4.6 mmo/L, the TP [2, 4] was 5.0 g/dL and 5.5 g/dL and 5.3 g/dL and the TRIG [2, 4] was 66 mg/dL and 80 mg/dL and 63 mg/dL and 38 mg/dL and 39 mg/dL and 31 mg/dL. The AGR [2, 5] was 2.0 (2×) and 2.1 and 2.3 and 1.8 and 2.6, the ALB [2, 5] was 3.2 g/dL and 3.7 g/dL and the ALPK [2, 5] was 90 IU/L. For the same molecule, the ALT [2, 5] was 26 IU/L and 24 IU/L and 28 IU/L and 20 IU/L (2×), the AST [2, 5] was 33 IU/L and 28 IU/L and the BUN [2, 5] was 13 mg/dL and 17 mg/dL and 33 mg/dL and 11 mg/dL and 25 mg/dL. The CHOL [2, 5] was 100 mg/dL, the CREA [2, 5] was 0.7 mg/dL and 0.5 mg/dL and 0.9 mg/dL and the Cl [2, 5] was 110 mmo/L. For the same molecule, the GLOB [2, 5] was 1.7 g/dL and 2.0 g/dL and 1.4 g/dL, the GLUC [2, 5] was 100 mg/dL and 88 mg/dL and 51 mg/dL and 112 mg/dL and 90 mg/dL and 65 mg/dL and the K [2, 5] was 4.7 mmo/L and 5.8 mmo/L and 5.5 mmo/L and 5.3 mmo/L. The TP [2, 5] was 4.8 g/dL and 5.0 g/dL (2×) and 5.5 g/dL, the TRIG [2, 5] was 26 mg/dL and 34 mg/dL (2×) and 52 mg/dL and 43 mg/dL and 58 mg/dL and the AGR [2, 6] was 2.3 and 2.0 and 1.7 (2×) and 1.6. For the same molecule, the ALB [2, 6] was 3.6 g/dL and 3.2 g/dL, the ALT [2, 6] was 27 IU/L (2×) and 25 IU/L and 24 IU/L and 20 IU/L and 21 IU/L and 40 IU/L and 23 IU/L and the AST [2, 6] was 32 IU/L (2×) and 34 IU/L and 38 IU/L and 31 IU/L and 35 IU/L and 30 IU/L. For the same molecule, the BUN [2, 6] was 11 mg/dL (2×) and 16 mg/dL and 15 mg/dL, the CHOL [2, 6] was 147 mg/dL and 125 mg/dL and 124 mg/dL and 182 mg/dL and 169 mg/dL and 176 mg/dL and the CREA [2, 6] was 0.5 mg/dL. For the same molecule, the GLOB [2, 6] was 1.6 g/dL and 2.1 g/dL (2×) and 2.0 g/dL, the GLUC [2, 6] was 82 mg/dL and 86 mg/dL and 70 mg/dL and 96 mg/dL and 79 mg/dL and 109 mg/dL and 81 mg/dL and the K [2, 6] was 4.8 mmo/L and 4.6 mmo/L and 5.1 mmo/L and 4.3 mmo/L and 5.3 mmo/L (2×) and 4.9 mmo/L (2×). For the same molecule, the TP [2, 6] was 4.9 g/dL and 5.1 g/dL and 5.6 g/dL and 5.5 g/dL and 5.4 g/dL (2×) and the TRIG [2, 6] was 49 mg/dL (2×) and 46 mg/dL and 40 mg/dL and 53 mg/dL (2×) and 44 mg/dL and 34 mg/dL and 41 mg/dL and 55 mg/dL.
